In patent publication US10647675B2 (priority 2015, dated 2020):
Values after ≈ are worked out from the molar mass of the structure shown.

Columns and labels:
[1] = test system: Trichophyton rubrum KD-1130; experiment: Antifungal activity evaluation test: minimum inhibitory concentration (MIC), broth dilution by reference to CLSI M38-A2; type: cell-based; details: KD1130, read-out: MIC (T. rubrum)
Method in brief: (§1)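 MIC read visually as lowest concentration inhibiting growth by at least 80% relative to control after 4 days at 35° C. Trichophyton strains inoculated at 2×10^3 cells/mL final in MOPS-buffered RPMI 1640 (pH 7.0); compounds as 2-fold DMSO series, CLSI M38-A2 basis.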

[2] = test system: Trichophyton mentagrophytes SM-110; experiment: as above; type: cell-based; details: SM110, read-out: MIC (T. menta.)
Method in brief: as §1

With COc1cc(F)ccc1-c1cccnc1Oc1cnc(N(C)C)nc1 [I-185, 5-{[3-(4-fluoro-2-methoxyphenyl)pyridin-2-yl]oxy}-N,N-dimethylpyrimidin-2-amine] as the compound, how does the MIC [1] read?
The MIC was ≤ 0.1 µg/mL.

And the MIC [2]?
Its MIC is ≤ 0.1 µg/mL.

Which MIC [1] does the source give for FC(F)(F)c1ccc(Oc2ncccc2-c2cccc3ccncc23)cn1 [I-43, 8-(2-{[6-(trifluoromethyl)pyridin-3-yl]oxy}pyridin-3-yl)-isoquinoline] here?
Its MIC is 0.2 to 0.78 µg/mL (≈ 0.544 to 2.12 µM).

What about the MIC [2] of the same compound?
The MIC was 0.2 to 0.78 µg/mL (≈ 0.544 to 2.12 µM).

COc1ccccc1-c1cccnc1Oc1ccc(C(F)(F)CN2CCOCC2)nc1 [I-148, 4-[2,2-difluoro-2-(5-{[3-(2-methoxyphenyl)pyridin-2-yl]oxy}pyridin-2-yl)-ethyl]morpholine] was tested. Which MIC [1] did it give?
Its MIC is 0.2 to 0.78 µg/mL (≈ 0.468 to 1.82 µM).

And the MIC [2]?
Its MIC is 0.2 to 0.78 µg/mL (≈ 0.468 to 1.82 µM).

Which MIC [1] does the source give for COc1ncccc1-c1cccnc1Oc1ccc(CCc2nc(C)no2)cc1 [I-411] here?
The MIC was ≤ 0.1 µg/mL.

What about the MIC [2] of the same compound?
Its MIC is ≤ 0.1 µg/mL.

With COCC(F)(F)c1ccc(Oc2ncccc2-c2cccc3cccnc23)cn1 [I-169, 8-(2-{[6-(1,1-difluoro-2-methoxyethyl)pyridin-3-yl]oxy}pyridin-3-yl)quinoline] as the compound, how does the MIC [1] read?
Its MIC is 0.2 to 0.78 µg/mL (≈ 0.508 to 1.98 µM).

And the MIC [2]?
The MIC was 0.2 to 0.78 µg/mL (≈ 0.508 to 1.98 µM).

What does the source list for FC(F)(F)c1ccc(Oc2ncncc2-c2cccc3c2OCC3)cn1 [I-327, 5-(2,3-dihydrobenzofuran-7-yl)-4-{[6-(trifluoromethyl)pyridin-3-yl]oxy}pyrimidine]?
MIC [1]: ≤ 0.1 µg/mL; MIC [2]: ≤ 0.1 µg/mL

How did the MIC [1] turn out when CC(F)(F)c1ccc(Oc2ncccc2-c2cccc3c(Cl)cnn23)cn1 [I-116, 3-chloro-7-(2-{[6-(1,1-difluoroethyl)pyridin-3-yl]oxy}pyridin-3-yl)pyrazolo[1,5-a]pyridine] was run?
Its MIC is ≤ 0.1 µg/mL.

What about the MIC [2] of the same compound?
Its MIC is ≤ 0.1 µg/mL.

With CC(F)(F)c1ccc(Oc2ncccc2-c2cccc3nccnc23)cn1 [I-110, 5-(2-{[6-(1,1-difluoroethyl)pyridin-3-yl]oxy}pyridin-3-yl)quinoxaline] as the compound, how does the MIC [1] read?
The MIC was 0.2 to 0.78 µg/mL (≈ 0.549 to 2.14 µM).

What about the MIC [2] of the same compound?
Its MIC is ≤ 0.1 µg/mL.

COc1cc(F)ccc1-c1cccnc1Oc1cnc(I)nc1 [I-191, 5-{[3-(4-fluoro-2-methoxyphenyl)pyridin-2-yl]oxy}-2-iodopyrimidine] was tested. Which MIC [1] did it give?
The MIC was 0.2 to 0.78 µg/mL (≈ 0.473 to 1.84 µM).

And the MIC [2]?
The MIC was 0.2 to 0.78 µg/mL (≈ 0.473 to 1.84 µM).

What does the source list for C=C(C)c1ccc(Oc2ncccc2-c2ccccc2OC)cn1 [I-453]?
MIC [1]: ≤ 0.1 µg/mL; MIC [2]: ≤ 0.1 µg/mL

What does the source list for COc1ccncc1-c1cccnc1Oc1ccc(C(C)=O)cc1 [I-244]?
MIC [1]: 1.56 to 6.25 µg/mL (≈ 4.87 to 19.5 µM); MIC [2]: 1.56 to 6.25 µg/mL (≈ 4.87 to 19.5 µM)

With COCC(F)(F)c1ccc(Oc2ncccc2-c2cccc3ccnn23)cn1 [I-167, 7-(2-{[6-(1,1-difluoro-2-methoxyethyl)pyridin-3-yl]oxy}pyridin-3-yl)pyrazolo[1,5-a]pyridine] as the compound, how does the MIC [1] read?
The MIC was 0.2 to 0.78 µg/mL (≈ 0.523 to 2.04 µM).

And the MIC [2]?
Its MIC is 0.2 to 0.78 µg/mL (≈ 0.523 to 2.04 µM).

Which results are given for COc1ccncc1-c1cccnc1Oc1ccc(C=O)cc1 [I-246]?
MIC [1]: 1.56 to 6.25 µg/mL (≈ 5.09 to 20.4 µM); MIC [2]: 1.56 to 6.25 µg/mL (≈ 5.09 to 20.4 µM)

For COc1cc(-c2cccnc2Oc2ccc(C(C)(F)F)nc2)c(F)cc1F [I-85], which MIC [1] is on record?
The MIC was ≤ 0.1 µg/mL.

And the MIC [2]?
Its MIC is ≤ 0.1 µg/mL.

COCC(F)(F)c1ccc(Oc2ncccc2-c2cc(OC)c(F)cc2F)cn1 [I-165, 2-{[6-(1,1-difluoro-2-methoxyethyl)pyridin-3-yl]oxy}-3-(2,4-difluoro-5-methoxyphenyl)pyridine] was tested. Which MIC [1] did it give?
The MIC was ≤ 0.1 µg/mL.

What about the MIC [2] of the same compound?
The MIC was ≤ 0.1 µg/mL.

What does the source list for Cc1cc(-c2cccnc2Oc2ccc(C(F)(F)F)nc2)n2nccc2n1 [I-48, 5-methyl-7-(2-{[6-(trifluoromethyl)pyridin-3-yl]oxy}pyridin-3-yl)-pyrazolo[1,5-a]pyrimidine]?
MIC [1]: 0.2 to 0.78 µg/mL (≈ 0.539 to 2.1 µM); MIC [2]: 1.56 to 6.25 µg/mL (≈ 4.2 to 16.8 µM)

Which MIC [1] does the source give for CCn1cc(CCc2ccc(Oc3ncccc3-c3cccnc3OC)cc2)cn1 [I-404, 2-{4-[2-(1-ethyl-1H-pyrazol-4-yl)ethyl]phenoxy}-2′-methoxy-3,3′-bipyridine] here?
Its MIC is ≤ 0.1 µg/mL.

What about the MIC [2] of the same compound?
The MIC was ≤ 0.1 µg/mL.

Which MIC [1] does the source give for Cc1c(F)cncc1-c1cccnc1Oc1ccc(C(F)(F)F)cc1 [I-208] here?
The MIC was ≤ 0.1 µg/mL.

What about the MIC [2] of the same compound?
Its MIC is ≤ 0.1 µg/mL.

With Cc1noc(-c2cccnc2Oc2ccc(C(C)(F)F)nc2)c1Cl [I-104, 4-chloro-5-(2-{[6-(1,1-difluoroethyl)pyridin-3-yl]oxy}pyridin-3-yl)-3-methylisoxazole] as the compound, how does the MIC [1] read?
The MIC was 0.2 to 0.78 µg/mL (≈ 0.569 to 2.22 µM).

And the MIC [2]?
Its MIC is 0.2 to 0.78 µg/mL (≈ 0.569 to 2.22 µM).

COc1ccncc1-c1cccnc1Oc1ccc(F)cc1 [I-236, 2-(4-fluorophenoxy)-4′-methoxy-3,3′-bipyridine] was tested. Which MIC [1] did it give?
The MIC was 1.56 to 6.25 µg/mL (≈ 5.26 to 21.1 µM).

And the MIC [2]?
The MIC was 1.56 to 6.25 µg/mL (≈ 5.26 to 21.1 µM).

How did the MIC [1] turn out when COc1ccccc1-c1cccnc1Oc1cnc2c(c1)CCCC2N(C)C (stereo not shown) [I-143, 3-{[3-(2-methoxyphenyl)pyridin-2-yl]oxy}-N,N-dimethyl-5,6,7,8-tetrahydroquinolin-8-amine] was run?
Its MIC is 0.2 to 0.78 µg/mL (≈ 0.533 to 2.08 µM).

And the MIC [2]?
Its MIC is 0.2 to 0.78 µg/mL (≈ 0.533 to 2.08 µM).

For COc1cc(-c2cncnc2Oc2cnc(C(F)F)c(C)c2)c(F)cc1F [I-325, 5-(2,4-difluoro-5-methoxyphenyl)-4-{[6-(difluoromethyl)-5-methylpyridin-3-yl]oxy}pyrimidine], which MIC [1] is on record?
The MIC was ≤ 0.1 µg/mL.

And the MIC [2]?
Its MIC is ≤ 0.1 µg/mL.

Which results are given for CCc1ccc(Oc2ncccc2-c2cnccc2OC)cn1 [I-127, 2-[(6-ethylpyridin-3-yl)oxy]-4′-methoxy-3,3′-bipyridine]?
MIC [1]: 1.56 to 6.25 µg/mL (≈ 5.08 to 20.3 µM); MIC [2]: 1.56 to 6.25 µg/mL (≈ 5.08 to 20.3 µM)

For CCCN(C)c1ccc(Oc2ncccc2-c2ccc(F)cc2OC)cn1 [I-368, 5-{[3-(4-fluoro-2-methoxyphenyl)pyridin-2-yl]oxy}-N-methyl-N-propylpyridin-2-amine], which MIC [1] is on record?
The MIC was ≤ 0.1 µg/mL.

What about the MIC [2] of the same compound?
Its MIC is ≤ 0.1 µg/mL.

COc1ccncc1-c1cccnc1Oc1ccc(C(F)(F)F)cc1 [I-210, 4′-methoxy-2-[4-(trifluoromethyl)phenoxy]-3,3′-bipyridine] was tested. Which MIC [1] did it give?
Its MIC is ≤ 0.1 µg/mL.

What about the MIC [2] of the same compound?
Its MIC is ≤ 0.1 µg/mL.

Which MIC [1] does the source give for COc1ccc(OC)c(-c2cccnc2Oc2ccc(C(C)(F)F)nc2)n1 [I-96, 2′-{[6-(1,1-difluoroethyl)pyridin-3-yl]oxy}-3,6-dimethoxy-2,3′-bipyridine] here?
Its MIC is ≤ 0.1 µg/mL.

And the MIC [2]?
Its MIC is ≤ 0.1 µg/mL.

For COc1cc(F)ccc1-c1cccnc1Oc1ccc(Cl)nc1 [I-366], which MIC [1] is on record?
Its MIC is ≤ 0.1 µg/mL.

And the MIC [2]?
The MIC was ≤ 0.1 µg/mL.

How did the MIC [1] turn out when COc1ccccc1-c1cccnc1Oc1ccc(COC(C)=O)nc1 [I-69, (5-{[3-(2-methoxyphenyl)-pyridin-2-yl]oxy}pyridin-2-yl)methyl acetate] was run?
Its MIC is 1.56 to 6.25 µg/mL.

And the MIC [2]?
The MIC was 1.56 to 6.25 µg/mL.

What does the source list for CCOCCc1ccc(Oc2ncccc2-c2cnccc2OC)cc1 [I-274, 2-[4-(2-ethoxyethyl)phenoxy]-4′-methoxy-3,3′-bipyridine]?
MIC [1]: 0.2 to 0.78 µg/mL (≈ 0.571 to 2.23 µM); MIC [2]: 0.2 to 0.78 µg/mL (≈ 0.571 to 2.23 µM)

COc1ccncc1-c1cccnc1Oc1ccc(C(OS(=O)(=O)c2ccc(C)cc2)C(F)(F)F)cc1 (stereo not shown) [I-248] was tested. Which MIC [1] did it give?
Its MIC is 1.56 to 6.25 µg/mL (≈ 2.94 to 11.8 µM).

And the MIC [2]?
The MIC was 1.56 to 6.25 µg/mL (≈ 2.94 to 11.8 µM).

Which MIC [1] does the source give for CC(F)(F)c1ccc(Oc2ncccc2-c2cccnc2-n2ccnc2)cn1 [I-106, 2-{[6-(1,1-difluoroethyl)pyridin-3-yl]oxy}-2′-(1H-imidazol-1-yl)-3,3′-bipyridine] here?
Its MIC is 1.56 to 6.25 µg/mL (≈ 4.11 to 16.5 µM).

And the MIC [2]?
The MIC was 1.56 to 6.25 µg/mL (≈ 4.11 to 16.5 µM).

How did the MIC [1] turn out when COc1ccncc1-c1cccnc1Oc1ccc(C2CC2)cc1 [I-261, 2-(4-cyclopropylphenoxy)-4′-methoxy-3,3′-bipyridine] was run?
The MIC was ≤ 0.1 µg/mL.

And the MIC [2]?
Its MIC is ≤ 0.1 µg/mL.

How did the MIC [1] turn out when CSc1ccccc1-c1cccnc1Oc1ccc(C(F)(F)F)nc1 [I-14] was run?
Its MIC is ≤ 0.1 µg/mL.

What about the MIC [2] of the same compound?
The MIC was ≤ 0.1 µg/mL.

Which MIC [1] does the source give for COc1ccc(F)cc1-c1cccnc1Oc1ccc(C(C)(F)F)nc1 [I-83, 2-{[6-(1,1-difluoroethyl)pyridin-3-yl]oxy}-3-(5-fluoro-2-methoxyphenyl)pyridine] here?
Its MIC is ≤ 0.1 µg/mL.

What about the MIC [2] of the same compound?
Its MIC is ≤ 0.1 µg/mL.

Which results are given for N#Cc1cnn2c(-c3cccnc3Oc3ccc(C(F)(F)F)nc3)cccc12 [I-54, 7-(2-{[6-(trifluoromethyl)pyridin-3-yl]oxy}pyridin-3-yl)-pyrazolo[1,5-a]pyridine-3-carbonitrile]?
MIC [1]: 0.2 to 0.78 µg/mL (≈ 0.524 to 2.05 µM); MIC [2]: 0.2 to 0.78 µg/mL (≈ 0.524 to 2.05 µM)
